Laboratory results: patent US12077503B2, “Substituted cyclic amides and their use as herbicides” (FMC CORPORATION, priority 2015, dated 2024)

Experiments:
Format in all cases: in vivo
[1] = tested on: barnyardgrass (Echinochloa crus-galli); test: Test B flooded paddy test; conditions: Echinochloa crus-galli, 360 h, Flood, 250 g ai/ha; visually evaluated after 13 to 15 d; read-out: Plant response rating, Barnyardgrass (0 to 100 scale where 0 is no effect and 100 is complete control)
In short: (§1)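 Greenhouse paddy pots with 2-leaf stage plants received compound by direct addition to floodwater 3 cm deep, kept at that level. Scored visually at 13–15 d versus controls (0 no effect; 100 complete control).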

[2] = tested on: sedge, umbrella (small-flower umbrella sedge, Cyperus difformis); test: Test B flooded paddy test; conditions: Cyperus difformis, 360 h, Flood, 250 g ai/ha; visually evaluated after 13 to 15 d; read-out: Plant response rating, Sedge, Umbrella (0 to 100 scale where 0 is no effect and 100 is complete control)
In short: as §1

rice (Oryra sativa) = test: Test B flooded paddy test; conditions: Oryza sativa, 360 h, Flood, 250 g ai/ha; visually evaluated after 13 to 15 d; read-out: Plant response rating, Rice (0 to 100 scale where 0 is no effect and 100 is complete control)
In short: as §1

[3] = tested on: ducksalad (Heteranthera limosa); test: Test B flooded paddy test; conditions: Heteranthera limosa, 360 h, Flood, 250 g ai/ha; visually evaluated after 13 to 15 d; read-out: Plant response rating, Ducksalad (0 to 100 scale where 0 is no effect and 100 is complete control)
In short: as §1

[4] = tested on: barnyardgrass (Echinochloa crus-galli); test: Test A preemergence; conditions: Echinochloa crus-galli, pre-emergence, 240 h, Preemergence
In short: (§2)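 Compounds were formulated in a non-phytotoxic solvent mixture with surfactant and applied as a preemergence directed soil spray after seeding, or sprayed postemergence over plants 2 to 10 cm tall at the one- to two-leaf stage. Evaluation after about 10 d compared treated with untreated controls, using a scale from 0 (no effect) to 100 (complete control).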

[5] = tested on: ragweed (common ragweed, Ambrosia elatior); test: Test A preemergence; conditions: Ambrosia artemisiifolia, pre-emergence, 240 h, Preemergence
In short: as §2

[6] = tested on: ryegrass, Italian (Italian ryegrass, Lolium multiflorum); test: Test A preemergence; conditions: Lolium multiflorum, pre-emergence, 240 h, Preemergence
In short: as §2

[7] = tested on: giant foxtail (Setaria faberii); test: Test A preemergence; conditions: Setaria faberi, pre-emergence, 240 h, Preemergence
In short: as §2

Kochia (Kochia scoparia) [8] = test: Test A preemergence; conditions: Bassia scoparia, pre-emergence, 240 h, Preemergence
In short: as §2

[9] = tested on: pigweed (Amaranthus retroflexus); test: Test A preemergence; conditions: Amaranthus retroflexus, pre-emergence, 240 h, Preemergence
[10] = tested on: wheat (Triticum aestivum); test: Test A postemergence; conditions: Triticum aestivum, post-emergence, 240 h, Postemergence
In short: as §2

[11] = tested on: barnyardgrass (Echinochloa crus-galli); test: Test A postemergence; conditions: Echinochloa crus-galli, post-emergence, 240 h, Postemergence
In short: as §2

[12] = tested on: ragweed (common ragweed, Ambrosia elatior); test: Test A postemergence; conditions: Ambrosia artemisiifolia, post-emergence, 240 h, Postemergence
In short: as §2

[13] = tested on: Galium (catchweed bedstraw, Galium aparine); test: Test A postemergence; conditions: Galium, post-emergence, 240 h, Postemergence
In short: as §2

[14] = tested on: ryegrass, Italian (Italian ryegrass, Lolium multiflorum); test: Test A postemergence; conditions: Lolium multiflorum, post-emergence, 240 h, Postemergence
In short: as §2

[15] = tested on: giant foxtail (Setaria faberii); test: Test A postemergence; conditions: Setaria faberi, post-emergence, 240 h, Postemergence
In short: as §2

corn (Zea mays) = test: Test A postemergence; conditions: Zea mays, post-emergence, 240 h, Postemergence
In short: as §2

[16] = tested on: blackgrass (Alopecurus myosuroides); test: Test A postemergence; conditions: Alopecurus myosuroides, post-emergence, 240 h, Postemergence
In short: as §2

Kochia (Kochia scoparia) [17] = test: Test A postemergence; conditions: Bassia scoparia, post-emergence, 240 h, Postemergence
In short: as §2

[18] = tested on: pigweed (Amaranthus retroflexus); test: Test A postemergence; conditions: Amaranthus retroflexus, post-emergence, 240 h, Postemergence
In short: as §2

Structure (SMILES): CN1C[C@H](c2ccc(C(F)(F)F)cc2)[C@@H](C(=O)Nc2cccnc2F)C1=O [Compound 1396]
- pest or weed control at 250 g/ha [1]: 80%
- pest or weed control at 250 g/ha [2]: 0%
- pest or weed control at 250 g/ha (rice (Oryra sativa)): 25%
- pest or weed control at 250 g/ha [3]: 100%
- pest or weed control at 31 g/ha ([4]; 31 g ai/ha, 0 to 100 scale where 0 is no effect and 100 is complete control, read-out: Barnyardgrass plant response rating): 90%
- pest or weed control at 125 g/ha ([4]; 125 g ai/ha, 0 to 100 scale (0 no effect, 100 complete control), read-out: Plant response rating, Barnyardgrass): 90%
- pest or weed control at 31 g/ha ([5]; 31 g ai/ha, 0 to 100 scale where 0 is no effect and 100 is complete control, read-out: Ragweed plant response rating): 30%
- pest or weed control at 125 g/ha ([5]; 125 g ai/ha, 0 to 100 scale (0 no effect, 100 complete control), read-out: Plant response rating, Ragweed): 60%
- pest or weed control at 31 g/ha ([6]; 31 g ai/ha, 0 to 100 scale where 0 is no effect and 100 is complete control, read-out: Ryegrass, Italian plant response rating): 0%
- pest or weed control at 125 g/ha ([6]; 125 g ai/ha, 0 to 100 scale (0 no effect, 100 complete control), read-out: Plant response rating, Ryegrass, Italian): 40%
- pest or weed control at 31 g/ha ([7]; 31 g ai/ha, 0 to 100 scale where 0 is no effect and 100 is complete control, read-out: Foxtail, Giant plant response rating): 90%
- pest or weed control at 125 g/ha ([7]; 125 g ai/ha, 0 to 100 scale (0 no effect, 100 complete control), read-out: Plant response rating, Foxtail, Giant): 90%
- pest or weed control at 31 g/ha (Kochia (Kochia scoparia) [8]; 31 g ai/ha, 0 to 100 scale where 0 is no effect and 100 is complete control, read-out: Kochia plant response rating): 30%
- pest or weed control at 125 g/ha (Kochia (Kochia scoparia) [8]; 125 g ai/ha, 0 to 100 scale (0 no effect, 100 complete control), read-out: Plant response rating, Kochia): 70%
- pest or weed control at 31 g/ha ([9]; 31 g ai/ha, 0 to 100 scale where 0 is no effect and 100 is complete control, read-out: Pigweed plant response rating): 70%
- pest or weed control at 125 g/ha ([9]; 125 g ai/ha, 0 to 100 scale (0 no effect, 100 complete control), read-out: Plant response rating, Pigweed): 90%
- plant injury at 31 g/ha ([10]; 31 g ai/ha, 0 is no effect, 100 is complete control, read-out: Wheat plant response rating (0 to 100 scale)): 0%
- plant injury at 125 g/ha ([10]; 125 g ai/ha, visual injury after approx. 10 d, 0 to 100 scale, 0 no effect, 100 complete control, read-out: Plant response rating, Wheat): 70%
- pest or weed control at 31 g/ha ([11]; 31 g ai/ha, 0 is no effect, 100 is complete control, read-out: Barnyardgrass plant response rating (0 to 100 scale)): 70%
- pest or weed control at 125 g/ha ([11]; 125 g ai/ha, visual injury after approx. 10 d, 0 to 100 scale, 0 no effect, 100 complete control, read-out: Plant response rating, Barnyardgrass): 80%
- pest or weed control at 31 g/ha ([12]; 31 g ai/ha, 0 is no effect, 100 is complete control, read-out: Ragweed plant response rating (0 to 100 scale)): 0%
- pest or weed control at 125 g/ha ([12]; 125 g ai/ha, visual injury after approx. 10 d, 0 to 100 scale, 0 no effect, 100 complete control, read-out: Plant response rating, Ragweed): 50%
- pest or weed control at 31 g/ha ([13]; 31 g ai/ha, 0 is no effect, 100 is complete control, read-out: Galium plant response rating (0 to 100 scale)): 60%
- pest or weed control at 125 g/ha ([13]; 125 g ai/ha, visual injury after approx. 10 d, 0 to 100 scale, 0 no effect, 100 complete control, read-out: Plant response rating, Galium): 70%
- pest or weed control at 31 g/ha ([14]; 31 g ai/ha, 0 is no effect, 100 is complete control, read-out: Ryegrass, Italian plant response rating (0 to 100 scale)): 20%
- pest or weed control at 125 g/ha ([14]; 125 g ai/ha, visual injury after approx. 10 d, 0 to 100 scale, 0 no effect, 100 complete control, read-out: Plant response rating, Ryegrass, Italian): 40%
- pest or weed control at 31 g/ha ([15]; 31 g ai/ha, 0 is no effect, 100 is complete control, read-out: Foxtail, Giant plant response rating (0 to 100 scale)): 80%
- pest or weed control at 125 g/ha ([15]; 125 g ai/ha, visual injury after approx. 10 d, 0 to 100 scale, 0 no effect, 100 complete control, read-out: Plant response rating, Foxtail, Giant): 80%
- plant injury at 31 g/ha (corn (Zea mays); 31 g ai/ha, 0 is no effect, 100 is complete control, read-out: Corn plant response rating (0 to 100 scale)): 20%
- Corn plant response rating (crop injury, 0 = no effect, 100 = complete kill) at 125 g/ha (corn (Zea mays); 125 g ai/ha, visual injury after approx. 10 d, 0 to 100 scale, 0 no effect, 100 complete control): 60%
- pest or weed control at 31 g/ha ([16]; 31 g ai/ha, 0 is no effect, 100 is complete control, read-out: Blackgrass plant response rating (0 to 100 scale)): 0%
- pest or weed control at 125 g/ha ([16]; 125 g ai/ha, visual injury after approx. 10 d, 0 to 100 scale, 0 no effect, 100 complete control, read-out: Plant response rating, Blackgrass): 50%
- pest or weed control at 31 g/ha (Kochia (Kochia scoparia) [17]; 31 g ai/ha, 0 is no effect, 100 is complete control, read-out: Kochia plant response rating (0 to 100 scale)): 60%
- pest or weed control at 125 g/ha (Kochia (Kochia scoparia) [17]; 125 g ai/ha, visual injury after approx. 10 d, 0 to 100 scale, 0 no effect, 100 complete control, read-out: Plant response rating, Kochia): 70%
- pest or weed control at 31 g/ha ([18]; 31 g ai/ha, 0 is no effect, 100 is complete control, read-out: Pigweed plant response rating (0 to 100 scale)): 30%
- pest or weed control at 125 g/ha ([18]; 125 g ai/ha, visual injury after approx. 10 d, 0 to 100 scale, 0 no effect, 100 complete control, read-out: Plant response rating, Pigweed): 70%
